According to PubChem BioAssay (NCI):
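Results reflect a 48-hour exposure of cells in 96-well plates to compound at five concentrations. GI50 is the concentration that inhibits growth by half. TGI: total growth inhibition.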

Tests used:
Experiment in all cases: NCI-60 cell line screen, 48 h
SK-MEL-5 melanoma = test system: SK-MEL-5 melanoma
HCT-15 colon = test system: HCT-15 colon
SK-MEL-2 melanoma = test system: SK-MEL-2 melanoma
SNB-75 CNS = test system: SNB-75 CNS
SF-295 CNS = test system: SF-295 CNS
A549 NSCLC = test system: A549 NSCLC
ACHN renal = test system: ACHN renal
OVCAR-8 ovarian = test system: OVCAR-8 ovarian
MCF7 breast = test system: MCF7 breast
MDA-MB-231 breast = test system: MDA-MB-231 breast
K-562 leukemia = test system: K-562 leukemia
HCT-116 colon = test system: HCT-116 colon
TK-10 renal = test system: TK-10 renal
T-47D breast = test system: T-47D breast
OVCAR-4 ovarian = test system: OVCAR-4 ovarian
RPMI-8226 leukemia = test system: RPMI-8226 leukemia
HCC-2998 colon = test system: HCC-2998 colon
SK-OV-3 ovarian = test system: SK-OV-3 ovarian
OVCAR-5 ovarian = test system: OVCAR-5 ovarian
U251 CNS = test system: U251 CNS
HOP-62 NSCLC = test system: HOP-62 NSCLC
SW-620 colon = test system: SW-620 colon
CAKI-1 renal = test system: CAKI-1 renal
KM12 colon = test system: KM12 colon
UACC-62 melanoma = test system: UACC-62 melanoma
COLO 205 colon = test system: COLO 205 colon
PC-3 prostate = test system: PC-3 prostate
HOP-92 NSCLC = test system: HOP-92 NSCLC
M14 melanoma = test system: M14 melanoma
SNB-19 CNS = test system: SNB-19 CNS
SK-MEL-28 melanoma = test system: SK-MEL-28 melanoma
SR leukemia = test system: SR leukemia
786-0 renal = test system: 786-0 renal
UO-31 renal = test system: UO-31 renal
HL-60(TB) leukemia = test system: HL-60(TB) leukemia
OVCAR-3 ovarian = test system: OVCAR-3 ovarian
NCI/ADR-RES ovarian = test system: NCI/ADR-RES ovarian
NCI-H460 lung = test system: NCI-H460 lung
SF-268 CNS = test system: SF-268 CNS
A498 renal = test system: A498 renal
EKVX NSCLC = test system: EKVX NSCLC
IGROV1 ovarian = test system: IGROV1 ovarian
DU-145 prostate = test system: DU-145 prostate
BT-549 breast = test system: BT-549 breast
LOX IMVI melanoma = test system: LOX IMVI melanoma
NCI-H226 lung = test system: NCI-H226 lung
SN12C renal = test system: SN12C renal
NCI-H522 lung = test system: NCI-H522 lung
NCI-H23 lung = test system: NCI-H23 lung
RXF 393 renal = test system: RXF 393 renal
UACC-257 melanoma = test system: UACC-257 melanoma
SF-539 CNS = test system: SF-539 CNS
HT29 colon = test system: HT29 colon
HS 578T breast = test system: HS 578T breast
MDA-MB-435 = test system: MDA-MB-435
MOLT-4 leukemia = test system: MOLT-4 leukemia

With `COc1cc2c(cc1OC)-c1ncc3c(OC)c(OC)c(OC)cc3c1C2` the GI50 (SK-MEL-5 melanoma) was 23.5 µM, the TGI (SK-MEL-5 melanoma) was > 100 µM and the GI50 (HCT-15 colon) was 13.7 µM. It also gave a TGI (HCT-15 colon) of 44.5 µM, a GI50 (SK-MEL-2 melanoma) of 0.0541 µM and a TGI (SK-MEL-2 melanoma) of 23.5 µM. For the same molecule, the GI50 (SNB-75 CNS) was 28.9 µM, the TGI (SNB-75 CNS) was > 100 µM and the GI50 (SF-295 CNS) was 25.8 µM. The TGI (SF-295 CNS) was > 100 µM, the GI50 (A549 NSCLC) was 19.1 µM and the TGI (A549 NSCLC) was 40.7 µM. The GI50 (ACHN renal) was 16.7 µM, the TGI (ACHN renal) was 43.8 µM and the GI50 (OVCAR-8 ovarian) was 16.3 µM. For the same molecule, the TGI (OVCAR-8 ovarian) was 38.5 µM, the GI50 (MCF7 breast) was 4.14 µM and the TGI (MCF7 breast) was 18.7 µM. For the same molecule, the GI50 (MDA-MB-231 breast) was 0.404 µM, the TGI (MDA-MB-231 breast) was 11.6 µM and the GI50 (K-562 leukemia) was 10.7 µM. For the same molecule, the TGI (K-562 leukemia) was > 100 µM, the GI50 (HCT-116 colon) was 8.81 µM and the TGI (HCT-116 colon) was 64.7 µM. For the same molecule, the GI50 (TK-10 renal) was 18.9 µM, the TGI (TK-10 renal) was 50.4 µM and the GI50 (T-47D breast) was 40.8 µM. For the same molecule, the TGI (T-47D breast) was > 100 µM, the GI50 (OVCAR-4 ovarian) was 96.5 µM and the TGI (OVCAR-4 ovarian) was > 100 µM. It also gave a GI50 (RPMI-8226 leukemia) of 2.5 µM, a TGI (RPMI-8226 leukemia) of 32.3 µM and a GI50 (HCC-2998 colon) of 47.7 µM. The TGI (HCC-2998 colon) was > 100 µM, the GI50 (SK-OV-3 ovarian) was 18.9 µM and the TGI (SK-OV-3 ovarian) was 43.2 µM. The GI50 (OVCAR-5 ovarian) was 26.6 µM, the TGI (OVCAR-5 ovarian) was > 100 µM and the GI50 (U251 CNS) was 15.8 µM. The TGI (U251 CNS) was 33 µM, the GI50 (HOP-62 NSCLC) was 16 µM and the TGI (HOP-62 NSCLC) was 29.4 µM. The GI50 (SW-620 colon) was 34.2 µM, the TGI (SW-620 colon) was > 100 µM and the GI50 (CAKI-1 renal) was 55.2 µM. The TGI (CAKI-1 renal) was > 100 µM, the GI50 (KM12 colon) was 33.8 µM and the TGI (KM12 colon) was > 100 µM. For the same molecule, the GI50 (UACC-62 melanoma) was 3.84 µM, the TGI (UACC-62 melanoma) was 25.6 µM and the GI50 (COLO 205 colon) was > 100 µM. For the same molecule, the TGI (COLO 205 colon) was > 100 µM, the GI50 (PC-3 prostate) was > 100 µM and the TGI (PC-3 prostate) was > 100 µM. The GI50 (HOP-92 NSCLC) was 58.5 µM, the TGI (HOP-92 NSCLC) was > 100 µM and the GI50 (M14 melanoma) was > 100 µM. The TGI (M14 melanoma) was > 100 µM, the GI50 (SNB-19 CNS) was 23 µM and the TGI (SNB-19 CNS) was 50 µM. The GI50 (SK-MEL-28 melanoma) was > 100 µM, the TGI (SK-MEL-28 melanoma) was > 100 µM and the GI50 (SR leukemia) was 0.609 µM. For the same molecule, the TGI (SR leukemia) was 2.47 µM, the GI50 (786-0 renal) was 36.7 µM and the TGI (786-0 renal) was > 100 µM. The GI50 (UO-31 renal) was 3.41 µM, the TGI (UO-31 renal) was 15.7 µM and the GI50 (HL-60(TB) leukemia) was 10.2 µM. For the same molecule, the TGI (HL-60(TB) leukemia) was > 100 µM, the GI50 (OVCAR-3 ovarian) was 0.529 µM and the TGI (OVCAR-3 ovarian) was 9.91 µM. For the same molecule, the GI50 (NCI/ADR-RES ovarian) was 13.4 µM, the TGI (NCI/ADR-RES ovarian) was 45 µM and the GI50 (NCI-H460 lung) was 15.3 µM. It also gave a TGI (NCI-H460 lung) of 61.3 µM, a GI50 (SF-268 CNS) of 4.97 µM and a TGI (SF-268 CNS) of 16.5 µM.
Molecule `CC(NC(=O)C(N)CCC(=O)O)C(=O)NCP(=O)(O)O` (stereo not drawn) has a GI50 (M14 melanoma) of 15.9 µg/mL.
For `COc1ncnc(NS(=O)(=O)c2ccc(N=C3C(=O)N(CN4CCN(c5c(F)cc6c(=O)c(C(=O)O)cn(C7CC7)c6c5OC)CC4C)c4ccc(Br)cc43)cc2)c1OC` (stereo not drawn), the GI50 (SK-MEL-5 melanoma) was 5.52 µM, the TGI (SK-MEL-5 melanoma) was 14.5 µM and the GI50 (HCT-15 colon) was 4.73 µM. The TGI (HCT-15 colon) was > 50 µM, the GI50 (SK-MEL-2 melanoma) was 20.5 µM and the TGI (SK-MEL-2 melanoma) was > 50 µM. The GI50 (SNB-75 CNS) was > 50 µM, the TGI (SNB-75 CNS) was > 50 µM and the GI50 (SF-295 CNS) was 20.8 µM. The TGI (SF-295 CNS) was > 50 µM, the GI50 (A498 renal) was 11.3 µM and the TGI (A498 renal) was > 50 µM. For the same molecule, the GI50 (A549 NSCLC) was 4.78 µM, the TGI (A549 NSCLC) was > 50 µM and the GI50 (ACHN renal) was 22.5 µM. For the same molecule, the TGI (ACHN renal) was > 50 µM, the GI50 (OVCAR-8 ovarian) was 15.3 µM and the TGI (OVCAR-8 ovarian) was > 50 µM. The GI50 (MCF7 breast) was 7.1 µM, the TGI (MCF7 breast) was 41.9 µM and the GI50 (MDA-MB-231 breast) was 9.42 µM. For the same molecule, the TGI (MDA-MB-231 breast) was 25.4 µM, the GI50 (EKVX NSCLC) was 6.4 µM and the TGI (EKVX NSCLC) was 44.8 µM. The GI50 (K-562 leukemia) was 1.69 µM, the TGI (K-562 leukemia) was > 50 µM and the GI50 (HCT-116 colon) was 9.96 µM. For the same molecule, the TGI (HCT-116 colon) was > 50 µM, the GI50 (IGROV1 ovarian) was 17.3 µM and the TGI (IGROV1 ovarian) was > 50 µM. The GI50 (TK-10 renal) was 2.47 µM, the TGI (TK-10 renal) was > 50 µM and the GI50 (OVCAR-4 ovarian) was > 50 µM. The TGI (OVCAR-4 ovarian) was > 50 µM, the GI50 (RPMI-8226 leukemia) was 5.54 µM and the TGI (RPMI-8226 leukemia) was 22.3 µM. The GI50 (DU-145 prostate) was 10.9 µM, the TGI (DU-145 prostate) was 37.3 µM and the GI50 (OVCAR-5 ovarian) was 5 µM. The TGI (OVCAR-5 ovarian) was > 50 µM, the GI50 (U251 CNS) was 19.7 µM and the TGI (U251 CNS) was > 50 µM. For the same molecule, the GI50 (BT-549 breast) was 6.57 µM, the TGI (BT-549 breast) was 19.9 µM and the GI50 (SW-620 colon) was 9.41 µM. For the same molecule, the TGI (SW-620 colon) was > 50 µM, the GI50 (CAKI-1 renal) was 6.21 µM and the TGI (CAKI-1 renal) was > 50 µM. It also gave a GI50 (LOX IMVI melanoma) of 1.22 µM, a TGI (LOX IMVI melanoma) of 31.4 µM and a GI50 (NCI-H226 lung) of 15.3 µM. For the same molecule, the TGI (NCI-H226 lung) was > 50 µM, the GI50 (SN12C renal) was 10.1 µM and the TGI (SN12C renal) was 23.4 µM. The GI50 (KM12 colon) was 4.02 µM, the TGI (KM12 colon) was 15.9 µM and the GI50 (UACC-62 melanoma) was 2.61 µM. For the same molecule, the TGI (UACC-62 melanoma) was 11.3 µM, the GI50 (NCI-H522 lung) was 31 µM and the TGI (NCI-H522 lung) was > 50 µM. For the same molecule, the GI50 (COLO 205 colon) was 10.8 µM, the TGI (COLO 205 colon) was 39.9 µM and the GI50 (PC-3 prostate) was 6.76 µM. It also gave a TGI (PC-3 prostate) of 29.4 µM, a GI50 (HOP-92 NSCLC) of 0.176 µM and a TGI (HOP-92 NSCLC) of 0.477 µM. The GI50 (M14 melanoma) was 15.3 µM, the TGI (M14 melanoma) was > 50 µM and the GI50 (SNB-19 CNS) was 19.4 µM. For the same molecule, the TGI (SNB-19 CNS) was > 50 µM, the GI50 (SK-MEL-28 melanoma) was > 50 µM and the TGI (SK-MEL-28 melanoma) was > 50 µM. The GI50 (SR leukemia) was 42.7 µM, the TGI (SR leukemia) was > 50 µM and the GI50 (786-0 renal) was 38.8 µM. For the same molecule, the TGI (786-0 renal) was > 50 µM, the GI50 (UO-31 renal) was > 50 µM and the TGI (UO-31 renal) was > 50 µM. It also gave a GI50 (NCI-H23 lung) of 8.79 µM, a TGI (NCI-H23 lung) of 27 µM and a GI50 (HL-60(TB) leukemia) of 8.4 µM. The TGI (HL-60(TB) leukemia) was > 50 µM, the GI50 (RXF 393 renal) was 12.9 µM and the TGI (RXF 393 renal) was 33 µM. The GI50 (UACC-257 melanoma) was 16.9 µM, the TGI (UACC-257 melanoma) was > 50 µM and the GI50 (SF-539 CNS) was 7.53 µM. The TGI (SF-539 CNS) was 22.1 µM, the GI50 (OVCAR-3 ovarian) was 7.52 µM and the TGI (OVCAR-3 ovarian) was 40.7 µM. The GI50 (HT29 colon) was 15.6 µM, the TGI (HT29 colon) was > 50 µM and the GI50 (HS 578T breast) was 12.1 µM. The TGI (HS 578T breast) was > 50 µM, the GI50 (MDA-MB-435) was 7.07 µM and the TGI (MDA-MB-435) was 33.2 µM. The GI50 (NCI/ADR-RES ovarian) was 7.06 µM, the TGI (NCI/ADR-RES ovarian) was > 50 µM and the GI50 (NCI-H460 lung) was 3.99 µM. The TGI (NCI-H460 lung) was 19.5 µM, the GI50 (SF-268 CNS) was 5.58 µM and the TGI (SF-268 CNS) was > 50 µM. The GI50 (MOLT-4 leukemia) was 18.3 µM and the TGI (MOLT-4 leukemia) was > 50 µM.
